ChEMBL document CHEMBL3885861, “Open TG-GATES”

Species on record: Rattus norvegicus
Experiment: Open TG-GATES - Regimen: Single
Assay type: toxicity, organism-based, Sprague-Dawley
Set-up: regimen Single, gender Male, age 6 weeks
Settings: in vivo, po, 0 mg/kg, route gavage, dose level Control; for APTT / Bas / Eos / Fbg / Hb / Ht / Lym / MCH / MCHC / MCV / Mono / Neu / PT / Plat / RBC / Ret / WBC: tissue Blood; for KIDNEY_L / KIDNEY_R / KIDNEY_TOTAL: tissue Kidney; for LIVER: tissue Liver; for A/G / ALP / ALT / AST / BUN / CRE / Ca / Cl / DBIL / GLC / IP / K / LDH / Na / PL / RALB / TBIL / TC / TG / TP / gamma-GTP: tissue Plasma

CN1C(=O)OC(C)(C)C1=O [TRIMETHADIONE] showed a TERMINAL_BW (3 h) of 205.3 g, an APTT (3 h) of 17.8 s and a Bas (3 h) of 0.2%. For the same compound, the Eos (3 h) was 0.8%, the Fbg (3 h) was 261 mg/dL and the Hb (3 h) was 13.4 g/dL. The Ht (3 h) was 40.1%, the Lym (3 h) was 79.8% and the MCH (3 h) was 21.8 pg. The MCHC (3 h) was 33.5%, the MCV (3 h) was 65.1 fL and the Mono (3 h) was 3%. It also gave a Neu (3 h) of 16%, a PT (3 h) of 13.8 s and a Plat (3 h) of 125.1 x10_4/uL. For the same compound, the RBC (3 h) was 616.4 x10_4/ul, the Ret (3 h) was 8.2% and the WBC (3 h) was 86.1 x10_2/uL. It also gave a KIDNEY_L (3 h) of 1 g, a KIDNEY_R (3 h) of 0.9 g and a KIDNEY_TOTAL (3 h) of 1.9 g. It also gave an LIVER (3 h) of 9 g, an A/G (3 h) of 0.9 and an ALP (3 h) of 1845.4 IU/L. For the same compound, the ALT (3 h) was 43.8 IU/L, the AST (3 h) was 85 IU/L and the BUN (3 h) was 9.6 mg/dL. It also gave a CRE (3 h) of 0.2 mg/dL, a Ca (3 h) of 10.6 mg/dL and a Cl (3 h) of 107.4 meq/L. It also gave a DBIL (3 h) of 0.006 mg/dL, a GLC (3 h) of 181.4 mg/dL and an IP (3 h) of 8.9 mg/dL. For the same compound, the K (3 h) was 4.2 meq/L, the LDH (3 h) was 152 IU/L and the Na (3 h) was 140.6 meq/L. The PL (3 h) was 133.8 mg/dL, the RALB (3 h) was 2.5 g/dL and the TBIL (3 h) was 0.07 mg/dL. The TC (3 h) was 72.2 mg/dL, the TG (3 h) was 42.6 mg/dL and the TP (3 h) was 5.3 g/dL. It also gave a gamma-GTP (3 h) of 1.2 IU/L, a TERMINAL_BW (6 h) of 205.6 g and an APTT (6 h) of 18.9 s. For the same compound, the Bas (6 h) was 0%, the Eos (6 h) was 1% and the Fbg (6 h) was 284.2 mg/dL. For the same compound, the Hb (6 h) was 13.1 g/dL, the Ht (6 h) was 39.6% and the Lym (6 h) was 77.4%. The MCH (6 h) was 21.4 pg, the MCHC (6 h) was 33.2% and the MCV (6 h) was 64.4 fL. The Mono (6 h) was 2.4%, the Neu (6 h) was 19% and the PT (6 h) was 13.8 s. It also gave a Plat (6 h) of 122.3 x10_4/uL, an RBC (6 h) of 615.2 x10_4/ul and a Ret (6 h) of 8.7%. The WBC (6 h) was 78 x10_2/uL, the KIDNEY_L (6 h) was 0.9 g and the KIDNEY_R (6 h) was 0.9 g. It also gave a KIDNEY_TOTAL (6 h) of 1.9 g, an LIVER (6 h) of 8.6 g and an A/G (6 h) of 0.9. The ALP (6 h) was 1304.6 IU/L, the ALT (6 h) was 34.4 IU/L and the AST (6 h) was 72.2 IU/L. It also gave a BUN (6 h) of 9 mg/dL, a CRE (6 h) of 0.2 mg/dL and a Ca (6 h) of 10.5 mg/dL. It also gave a Cl (6 h) of 108.2 meq/L, a DBIL (6 h) of 0.002 mg/dL and a GLC (6 h) of 176.4 mg/dL. The IP (6 h) was 8.9 mg/dL, the K (6 h) was 4.2 meq/L and the LDH (6 h) was 109.8 IU/L. For the same compound, the Na (6 h) was 140.6 meq/L, the PL (6 h) was 145.4 mg/dL and the RALB (6 h) was 2.5 g/dL. For the same compound, the TBIL (6 h) was 0.064 mg/dL, the TC (6 h) was 83 mg/dL and the TG (6 h) was 49.6 mg/dL. The TP (6 h) was 5.4 g/dL, the gamma-GTP (6 h) was 1.4 IU/L and the TERMINAL_BW (9 h) was 205.5 g. The APTT (9 h) was 19.5 s, the Bas (9 h) was 0% and the Eos (9 h) was 0.8%. The Fbg (9 h) was 276.8 mg/dL, the Hb (9 h) was 13.5 g/dL and the Ht (9 h) was 40.8%. It also gave a Lym (9 h) of 75.2%, an MCH (9 h) of 20.9 pg and an MCHC (9 h) of 33%. It also gave an MCV (9 h) of 63.4 fL, a Mono (9 h) of 2.2% and a Neu (9 h) of 21.4%. The PT (9 h) was 13.7 s, the Plat (9 h) was 114.8 x10_4/uL and the RBC (9 h) was 642.8 x10_4/ul. It also gave a Ret (9 h) of 7.6%, a WBC (9 h) of 82.3 x10_2/uL and a KIDNEY_L (9 h) of 0.9 g. For the same compound, the KIDNEY_R (9 h) was 0.9 g, the KIDNEY_TOTAL (9 h) was 1.7 g and the LIVER (9 h) was 7.9 g. For the same compound, the A/G (9 h) was 0.9, the ALP (9 h) was 1637 IU/L and the ALT (9 h) was 38 IU/L. For the same compound, the AST (9 h) was 77 IU/L, the BUN (9 h) was 9.6 mg/dL and the CRE (9 h) was 0.2 mg/dL. The Ca (9 h) was 10.5 mg/dL, the Cl (9 h) was 108 meq/L and the DBIL (9 h) was 0.002 mg/dL. The GLC (9 h) was 176.6 mg/dL, the IP (9 h) was 9.7 mg/dL and the K (9 h) was 3.9 meq/L. It also gave an LDH (9 h) of 76.4 IU/L, a Na (9 h) of 141.4 meq/L and a PL (9 h) of 133.6 mg/dL. The RALB (9 h) was 2.5 g/dL, the TBIL (9 h) was 0.064 mg/dL and the TC (9 h) was 72.8 mg/dL. It also gave a TG (9 h) of 31.2 mg/dL, a TP (9 h) of 5.4 g/dL and a gamma-GTP (9 h) of 1.2 IU/L. For the same compound, the TERMINAL_BW (24 h) was 223.7 g, the APTT (24 h) was 17.1 s and the Bas (24 h) was 0%. It also gave an Eos (24 h) of 1%, a Fbg (24 h) of 254 mg/dL and a Hb (24 h) of 13.1 g/dL. It also gave a Ht (24 h) of 39.5%, a Lym (24 h) of 77.2% and an MCH (24 h) of 21.8 pg. It also gave an MCHC (24 h) of 33%, an MCV (24 h) of 66.1 fL and a Mono (24 h) of 3%. It also gave a Neu (24 h) of 18.2%, a PT (24 h) of 13.3 s and a Plat (24 h) of 113.7 x10_4/uL. For the same compound, the RBC (24 h) was 598 x10_4/ul, the Ret (24 h) was 7.3% and the WBC (24 h) was 99.1 x10_2/uL. For the same compound, the KIDNEY_L (24 h) was 1 g, the KIDNEY_R (24 h) was 0.9 g and the KIDNEY_TOTAL (24 h) was 1.9 g. The LIVER (24 h) was 10.4 g, the A/G (24 h) was 0.9 and the ALP (24 h) was 1802.2 IU/L. The ALT (24 h) was 47.2 IU/L, the AST (24 h) was 74.8 IU/L and the BUN (24 h) was 15 mg/dL. It also gave a CRE (24 h) of 0.2 mg/dL, a Ca (24 h) of 10.9 mg/dL and a Cl (24 h) of 104.8 meq/L. The DBIL (24 h) was 0.01 mg/dL, the GLC (24 h) was 165.4 mg/dL and the IP (24 h) was 7.8 mg/dL. It also gave a K (24 h) of 4 meq/L, an LDH (24 h) of 82 IU/L and a Na (24 h) of 142.8 meq/L. The PL (24 h) was 161 mg/dL, the RALB (24 h) was 2.6 g/dL and the TBIL (24 h) was 0.056 mg/dL. The TC (24 h) was 85.6 mg/dL, the TG (24 h) was 92.2 mg/dL and the TP (24 h) was 5.6 g/dL. It also gave a gamma-GTP (24 h) of 1 IU/L.
